What was measured:
IDO [1] = target: T1, IDO (Homo sapiens, UniProt P14902); conditions: J F Reinhard et al., 1996, read-out: IC50 (affinity to IDO); cited from earlier work
Target sequence in this assay (P14902 whole entry, species assumed): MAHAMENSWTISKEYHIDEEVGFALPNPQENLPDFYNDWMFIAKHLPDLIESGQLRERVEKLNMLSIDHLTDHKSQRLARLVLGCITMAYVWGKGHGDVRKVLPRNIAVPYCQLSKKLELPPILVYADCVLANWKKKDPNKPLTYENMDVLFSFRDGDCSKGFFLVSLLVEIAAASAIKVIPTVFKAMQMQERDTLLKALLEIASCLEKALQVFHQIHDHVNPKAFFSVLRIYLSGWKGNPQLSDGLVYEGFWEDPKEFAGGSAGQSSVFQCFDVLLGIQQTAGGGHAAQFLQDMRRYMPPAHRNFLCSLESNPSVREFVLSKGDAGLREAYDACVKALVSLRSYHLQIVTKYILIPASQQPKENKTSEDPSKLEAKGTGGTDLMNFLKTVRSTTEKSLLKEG

human TDO2 = target: T2, human TDO2 (Homo sapiens, UniProt P48775); experiment: Tryptophan degradation and kynurenin production by 293-E cells transfected with human TDO2, HPLC of supernatant; format: cell-based; conditions: 293-E hTDO cells, overnight, HBSS with 25 μM tryptophan, increasing inhibitor concentrations (FIG. 4)
T2 construct: expressed in transfected cells; host or cells: human 293-EBNA (293-E) cells

IDO [2] = target: T1, IDO; experiment: Tryptophan degradation and kynurenin production by 293-E cells transfected with human IDO, HPLC of supernatant; format: cell-based; set-up: expressed in transfected cells; host or cells: human 293-EBNA (293-E) cells; conditions: 293-E hIDO cells, overnight, HBSS with 25 μM tryptophan, increasing inhibitor concentrations (FIG. 4)
Experimental: FIG. 4. Line graphs depicting concentrations of tryptophan and kynurenine in culture supernatants of different transfected cells. Control human 293-EBNA cells (293-E) (FIG. 4A), 293-E cells transfected with human IDO (293-E hIDO) (FIG. 4B) or human 293-E cells transfected with human TDO2 (293-E hTDO) (FIG. 4C) were incubated overnight (4×10^5 cells/2000) in Hank's balanced Salt solution (HBSS) supplemented with 25 μM tryptophan and increasing concentrations of the 680C91 inhibitor compound ([inh]). The concentrations (μM) of tryptophan ([Trp], ⋄) and kynurenin ([Kyn], □) were measured by HPLC in the supernatant.
A TDO inhibitor, 680C91, was described in Salter, M., R. Hazelwood, C. I. Pogson, R. Iyer, and D. J. Madge. 1995. Biochem. Pharmacol. 49:1435-1442. We synthesized this compound and tested its capacity to block tryptophan degradation by human 293 cells transfected with TDO2.
Target sequence in this assay (P14902 whole entry): as the sequence (P14902 whole entry, species assumed) above

[3] = target: T3, TDO2 in Head and Neck carcinoma cell line 2720 (SENY) (Homo sapiens, UniProt P48775); experiment: Tryptophan consumption and kynurenine production by Head and Neck carcinoma cell line 2720 (SENY), HPLC of supernatant; format: cell-based; conditions: at 20 μM; SENY cells, overnight, HBSS with 50 μM tryptophan
T3 construct: To confirm the expression of enzymatically active TDO2, we used Head and Neck carcinoma cell line 2720 (SENY); endogenous in cells; host or cells: Head and Neck carcinoma cell line 2720 (SENY)
Experimental: FIG. 5. A bar graph depicting tryptophan consumption and kynurenine production in head and neck carcinoma cell line 2720 (SENY) in the presence or absence of the TDO-specific inhibitor 680C91 or the IDO inhibitor mb.
To confirm the expression of enzymatically active TDO2, we used Head and Neck carcinoma cell line 2720 (SENY), which expresses 12.7 molecules of TDO2 mRNA/cell. We measured tryptophan consumption and kynurenine production in the supernatant of 5×10^5 cells incubated overnight in 2 ml of HBSS containing 50 μM tryptophan. Tryptophan and kynurenine concentrations were measured by HPLC using standard methods.
See FIG. 5 for results of this assay. To confirm that the tryptophan-degrading activity was due to TDO, TDO-specific inhibitor 680C91 was included at 5 μM or 20 μM. As control, an IDO inhibitor (mb) was also used at 5 μM or 20 μM. A tryptophan-degrading activity was detected and was clearly observed by looking at the production of kynurenine: 11 μM as compared to 0 in the control without cells. This activity was mostly attributable to TDO, as it was blocked by the TDO-specific inhibitor 680C91 (50% inhibition at 20 μM).

T2 sequence (P48775 whole entry): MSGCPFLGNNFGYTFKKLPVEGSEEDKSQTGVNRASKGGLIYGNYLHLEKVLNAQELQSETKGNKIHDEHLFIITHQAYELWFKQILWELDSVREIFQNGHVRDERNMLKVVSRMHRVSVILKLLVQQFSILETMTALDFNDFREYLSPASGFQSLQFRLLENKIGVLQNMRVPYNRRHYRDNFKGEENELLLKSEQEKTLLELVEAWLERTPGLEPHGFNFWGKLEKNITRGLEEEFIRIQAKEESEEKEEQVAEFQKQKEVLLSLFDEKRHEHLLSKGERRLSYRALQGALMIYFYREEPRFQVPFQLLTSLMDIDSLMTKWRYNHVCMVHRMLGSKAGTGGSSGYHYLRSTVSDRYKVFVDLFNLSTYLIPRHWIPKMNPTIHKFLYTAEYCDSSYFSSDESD
T3 sequence (P48775 whole entry): as above

SMILES	IC50 (IDO [1])	block of tryptophan degradation and kynurenin production by TDO-expressing cells (human TDO2)	block of tryptophan degradation and kynurenin production by IDO-expressing cells (IDO [2])	inhibition of tryptophan-degrading activity (kynurenine production) [3]
C(=C\c1c[nH]c2ccccc12)/c1ccncc1 [540C91, (E)-3-[2-(4′-pyridyl)-vinyl]-1H-indole]	1.15 mM	–	–	–
Fc1ccc2c(/C=C/c3cccnc3)c[nH]c2c1 [680C91, (E)-6-fluoro-3-[2-(3-pyridyl)vinyl]-1H-indole]	–	efficiently blocked	failed to block	50%

Source: patent publication US20110159017A1, “TRYTOPHAN CATABOLISM IN CANCER TREATMENT AND DIAGNOSIS” (Ludwig Institute for Cancer Research Ltd., priority 2008, published 2011)
